What was measured:
Settings in all cases: Compound concentration 10.0 uM
[1] = target: T1, 5-hydroxytryptamine receptor 3A (Homo sapiens) (UniProt P46098)
T1 sequence (whole entry): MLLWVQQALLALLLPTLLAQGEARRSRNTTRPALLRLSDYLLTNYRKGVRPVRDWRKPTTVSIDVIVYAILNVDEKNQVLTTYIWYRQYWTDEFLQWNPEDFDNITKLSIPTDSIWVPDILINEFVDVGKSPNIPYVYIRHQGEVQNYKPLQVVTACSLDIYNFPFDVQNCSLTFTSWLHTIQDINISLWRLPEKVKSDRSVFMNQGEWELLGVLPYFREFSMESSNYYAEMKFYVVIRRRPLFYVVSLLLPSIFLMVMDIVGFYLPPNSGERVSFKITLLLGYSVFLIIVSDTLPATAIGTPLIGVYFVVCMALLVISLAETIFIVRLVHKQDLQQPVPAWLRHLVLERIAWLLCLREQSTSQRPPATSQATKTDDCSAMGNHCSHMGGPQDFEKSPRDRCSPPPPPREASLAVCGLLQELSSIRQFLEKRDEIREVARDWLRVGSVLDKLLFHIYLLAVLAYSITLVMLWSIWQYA

[2] = target: T2, Alpha-2C adrenergic receptor (Homo sapiens) (UniProt P18825)
T2 sequence (whole entry): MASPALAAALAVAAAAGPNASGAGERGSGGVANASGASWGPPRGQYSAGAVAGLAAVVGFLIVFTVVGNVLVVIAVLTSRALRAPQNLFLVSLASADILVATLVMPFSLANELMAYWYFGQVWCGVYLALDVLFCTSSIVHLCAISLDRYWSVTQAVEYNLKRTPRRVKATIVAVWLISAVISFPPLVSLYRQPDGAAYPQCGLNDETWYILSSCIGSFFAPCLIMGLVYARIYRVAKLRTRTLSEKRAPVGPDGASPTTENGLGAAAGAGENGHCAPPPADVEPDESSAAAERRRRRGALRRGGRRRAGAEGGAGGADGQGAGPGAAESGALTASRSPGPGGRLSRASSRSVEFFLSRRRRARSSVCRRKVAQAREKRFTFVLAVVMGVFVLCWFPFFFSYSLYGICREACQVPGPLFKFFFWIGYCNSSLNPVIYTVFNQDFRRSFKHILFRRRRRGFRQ

[3] = target: Sodium-dependent dopamine transporter (Homo sapiens) (UniProt Q01959)
[4] = target: Sigma intracellular receptor 2 (Homo sapiens) (UniProt Q5BJF2)
[5] = target: Histamine H3 receptor (Homo sapiens) (UniProt Q9Y5N1)
[6] = target: Muscarinic acetylcholine receptor M5 (Homo sapiens) (UniProt P08912)
[7] = target: T3, Alpha-1D adrenergic receptor (Homo sapiens) (UniProt P25100)
T3 sequence (whole entry): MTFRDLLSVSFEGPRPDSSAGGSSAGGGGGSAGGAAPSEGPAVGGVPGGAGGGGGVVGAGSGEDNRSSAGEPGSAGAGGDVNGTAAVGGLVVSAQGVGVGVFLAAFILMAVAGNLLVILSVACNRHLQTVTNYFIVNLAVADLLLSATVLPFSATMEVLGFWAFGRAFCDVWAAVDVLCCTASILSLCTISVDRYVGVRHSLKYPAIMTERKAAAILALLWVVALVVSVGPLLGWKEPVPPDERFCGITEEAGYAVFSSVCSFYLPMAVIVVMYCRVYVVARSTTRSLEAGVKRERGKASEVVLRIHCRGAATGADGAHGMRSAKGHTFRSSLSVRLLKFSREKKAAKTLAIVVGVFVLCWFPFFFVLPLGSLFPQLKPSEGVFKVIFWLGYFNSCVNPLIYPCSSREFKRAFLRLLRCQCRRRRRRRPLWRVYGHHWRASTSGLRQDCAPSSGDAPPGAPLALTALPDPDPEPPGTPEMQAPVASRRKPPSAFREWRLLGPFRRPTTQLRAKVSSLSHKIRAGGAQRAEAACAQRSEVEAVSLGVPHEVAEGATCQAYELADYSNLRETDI

[8] = target: D(1B) dopamine receptor (Homo sapiens) (UniProt P21918)
[9] = target: Sigma non-opioid intracellular receptor 1 (Homo sapiens) (UniProt Q99720)
[10] = target: T4, Alpha-2A adrenergic receptor (Homo sapiens) (UniProt P08913)
T4 sequence (whole entry): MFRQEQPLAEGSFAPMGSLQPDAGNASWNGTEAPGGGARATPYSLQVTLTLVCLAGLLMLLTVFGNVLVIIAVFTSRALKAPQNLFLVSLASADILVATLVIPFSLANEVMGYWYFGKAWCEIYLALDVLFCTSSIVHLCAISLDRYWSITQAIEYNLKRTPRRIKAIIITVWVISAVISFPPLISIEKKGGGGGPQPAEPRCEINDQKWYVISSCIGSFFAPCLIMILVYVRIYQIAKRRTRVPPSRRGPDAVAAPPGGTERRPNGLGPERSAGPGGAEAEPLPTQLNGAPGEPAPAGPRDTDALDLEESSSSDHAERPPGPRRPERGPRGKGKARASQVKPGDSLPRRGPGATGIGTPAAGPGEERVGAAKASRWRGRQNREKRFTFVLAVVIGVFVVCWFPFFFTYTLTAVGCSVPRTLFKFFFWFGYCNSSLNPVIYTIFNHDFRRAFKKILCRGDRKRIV

[11] = target: 5-hydroxytryptamine receptor 2C (Homo sapiens) (UniProt P28335)
[12] = target: T5, Alpha-2B adrenergic receptor (Homo sapiens) (UniProt P18089)
T5 sequence (whole entry): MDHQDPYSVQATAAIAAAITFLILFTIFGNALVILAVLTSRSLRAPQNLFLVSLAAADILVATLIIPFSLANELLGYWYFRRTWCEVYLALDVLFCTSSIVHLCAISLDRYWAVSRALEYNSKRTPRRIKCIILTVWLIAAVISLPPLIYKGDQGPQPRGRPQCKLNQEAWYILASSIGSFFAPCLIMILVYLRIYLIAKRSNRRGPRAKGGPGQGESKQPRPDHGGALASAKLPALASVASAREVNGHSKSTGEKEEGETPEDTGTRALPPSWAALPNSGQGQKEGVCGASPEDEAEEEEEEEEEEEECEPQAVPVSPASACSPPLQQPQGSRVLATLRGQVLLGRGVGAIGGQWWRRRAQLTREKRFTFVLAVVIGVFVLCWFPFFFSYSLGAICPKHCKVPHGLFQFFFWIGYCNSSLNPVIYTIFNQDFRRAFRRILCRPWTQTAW

[13] = target: Beta-3 adrenergic receptor (Homo sapiens) (UniProt P13945)
Chain of Beta-3 adrenergic receptor (Homo sapiens) (P13945 whole entry, looked up): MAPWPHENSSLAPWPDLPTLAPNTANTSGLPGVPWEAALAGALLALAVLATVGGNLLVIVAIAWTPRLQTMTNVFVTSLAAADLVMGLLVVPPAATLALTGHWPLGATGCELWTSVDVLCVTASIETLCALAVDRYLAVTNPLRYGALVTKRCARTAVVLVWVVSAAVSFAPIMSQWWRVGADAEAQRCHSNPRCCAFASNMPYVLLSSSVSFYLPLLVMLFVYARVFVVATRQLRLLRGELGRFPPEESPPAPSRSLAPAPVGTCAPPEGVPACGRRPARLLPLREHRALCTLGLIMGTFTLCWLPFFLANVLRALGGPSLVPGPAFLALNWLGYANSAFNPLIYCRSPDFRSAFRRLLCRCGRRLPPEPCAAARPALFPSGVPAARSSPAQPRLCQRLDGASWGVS

Chain of Muscarinic acetylcholine receptor M5 (Homo sapiens) (P08912 whole entry): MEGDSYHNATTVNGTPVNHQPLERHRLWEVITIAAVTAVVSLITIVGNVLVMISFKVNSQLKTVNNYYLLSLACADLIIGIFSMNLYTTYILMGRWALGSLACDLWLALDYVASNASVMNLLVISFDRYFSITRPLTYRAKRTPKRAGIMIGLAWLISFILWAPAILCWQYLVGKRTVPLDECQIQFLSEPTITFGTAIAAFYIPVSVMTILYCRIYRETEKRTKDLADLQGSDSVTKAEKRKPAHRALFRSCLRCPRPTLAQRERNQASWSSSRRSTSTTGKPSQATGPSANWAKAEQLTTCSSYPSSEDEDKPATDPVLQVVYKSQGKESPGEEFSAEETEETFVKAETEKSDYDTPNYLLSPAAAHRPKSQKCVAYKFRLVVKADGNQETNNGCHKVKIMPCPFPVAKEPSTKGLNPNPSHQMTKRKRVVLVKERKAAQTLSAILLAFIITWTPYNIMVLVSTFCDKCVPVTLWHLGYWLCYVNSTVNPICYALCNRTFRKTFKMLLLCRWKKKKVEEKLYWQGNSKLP
Chain of Sodium-dependent dopamine transporter (Homo sapiens) (Q01959 whole entry): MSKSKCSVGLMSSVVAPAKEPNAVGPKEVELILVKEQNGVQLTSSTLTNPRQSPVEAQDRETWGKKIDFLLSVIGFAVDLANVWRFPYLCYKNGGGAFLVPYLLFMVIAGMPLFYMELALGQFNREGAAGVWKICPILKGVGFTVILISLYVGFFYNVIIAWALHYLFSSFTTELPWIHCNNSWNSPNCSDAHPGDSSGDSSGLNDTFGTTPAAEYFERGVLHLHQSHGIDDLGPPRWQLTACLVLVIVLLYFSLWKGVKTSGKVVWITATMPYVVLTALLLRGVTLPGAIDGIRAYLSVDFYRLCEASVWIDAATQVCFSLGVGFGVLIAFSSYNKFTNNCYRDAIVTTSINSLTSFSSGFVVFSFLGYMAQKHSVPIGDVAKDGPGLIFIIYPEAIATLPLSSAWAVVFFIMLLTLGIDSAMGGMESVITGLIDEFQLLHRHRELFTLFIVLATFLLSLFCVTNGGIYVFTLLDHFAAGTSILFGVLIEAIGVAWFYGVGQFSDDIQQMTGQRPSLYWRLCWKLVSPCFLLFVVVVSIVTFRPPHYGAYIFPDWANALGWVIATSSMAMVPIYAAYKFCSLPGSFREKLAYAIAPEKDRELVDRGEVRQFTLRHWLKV
Chain of 5-hydroxytryptamine receptor 2C (Homo sapiens) (P28335 whole entry): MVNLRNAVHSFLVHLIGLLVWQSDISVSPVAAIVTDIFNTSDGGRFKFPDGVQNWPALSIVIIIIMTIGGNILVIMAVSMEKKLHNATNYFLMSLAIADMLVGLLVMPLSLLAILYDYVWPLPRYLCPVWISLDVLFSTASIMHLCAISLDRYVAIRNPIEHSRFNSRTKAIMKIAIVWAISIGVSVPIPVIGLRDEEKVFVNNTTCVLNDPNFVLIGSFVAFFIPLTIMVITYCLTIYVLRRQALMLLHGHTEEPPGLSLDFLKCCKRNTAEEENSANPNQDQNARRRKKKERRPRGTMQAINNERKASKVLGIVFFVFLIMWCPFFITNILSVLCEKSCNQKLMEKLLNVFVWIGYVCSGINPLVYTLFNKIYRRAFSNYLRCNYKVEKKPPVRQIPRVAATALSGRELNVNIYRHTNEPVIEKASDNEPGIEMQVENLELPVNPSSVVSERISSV
Chain of D(1B) dopamine receptor (Homo sapiens) (P21918 whole entry): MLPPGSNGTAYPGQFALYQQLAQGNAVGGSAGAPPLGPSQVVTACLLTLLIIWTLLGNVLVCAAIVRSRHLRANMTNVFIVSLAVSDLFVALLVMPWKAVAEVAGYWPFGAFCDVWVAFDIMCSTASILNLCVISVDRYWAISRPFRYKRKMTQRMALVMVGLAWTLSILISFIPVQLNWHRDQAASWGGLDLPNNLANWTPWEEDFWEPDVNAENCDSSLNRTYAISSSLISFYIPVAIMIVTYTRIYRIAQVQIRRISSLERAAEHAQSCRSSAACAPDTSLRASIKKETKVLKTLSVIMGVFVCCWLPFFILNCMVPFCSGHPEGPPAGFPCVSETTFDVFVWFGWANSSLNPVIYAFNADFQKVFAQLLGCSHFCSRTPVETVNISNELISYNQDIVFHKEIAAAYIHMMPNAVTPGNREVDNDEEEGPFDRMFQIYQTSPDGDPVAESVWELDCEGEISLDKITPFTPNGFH
Chain of Sigma non-opioid intracellular receptor 1 (Homo sapiens) (Q99720 whole entry): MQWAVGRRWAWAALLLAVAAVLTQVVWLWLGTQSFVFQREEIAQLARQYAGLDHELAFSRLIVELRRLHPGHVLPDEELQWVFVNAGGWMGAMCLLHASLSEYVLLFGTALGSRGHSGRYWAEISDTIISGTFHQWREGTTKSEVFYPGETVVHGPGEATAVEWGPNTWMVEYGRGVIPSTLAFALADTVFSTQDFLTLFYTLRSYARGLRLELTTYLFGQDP
Chain of Sigma intracellular receptor 2 (Homo sapiens) (Q5BJF2 whole entry): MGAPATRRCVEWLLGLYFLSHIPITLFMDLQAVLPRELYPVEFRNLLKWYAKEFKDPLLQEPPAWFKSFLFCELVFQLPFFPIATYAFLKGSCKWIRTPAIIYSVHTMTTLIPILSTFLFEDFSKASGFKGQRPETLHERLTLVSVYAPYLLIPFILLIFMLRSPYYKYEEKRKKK
Chain of Histamine H3 receptor (Homo sapiens) (Q9Y5N1 whole entry): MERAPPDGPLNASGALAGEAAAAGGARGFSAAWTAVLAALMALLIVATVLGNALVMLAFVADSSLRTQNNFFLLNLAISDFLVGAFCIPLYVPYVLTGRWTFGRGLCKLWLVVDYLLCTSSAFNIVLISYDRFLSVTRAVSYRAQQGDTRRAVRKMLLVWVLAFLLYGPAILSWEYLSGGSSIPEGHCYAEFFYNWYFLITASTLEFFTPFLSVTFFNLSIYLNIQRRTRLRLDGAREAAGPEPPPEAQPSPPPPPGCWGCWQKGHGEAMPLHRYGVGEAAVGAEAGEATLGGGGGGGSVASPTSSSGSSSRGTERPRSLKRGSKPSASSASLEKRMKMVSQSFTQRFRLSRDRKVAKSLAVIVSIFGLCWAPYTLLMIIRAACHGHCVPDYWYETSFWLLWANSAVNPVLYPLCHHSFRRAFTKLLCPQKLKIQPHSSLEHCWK

inhibition [1] [%] | inhibition [2] [%] | inhibition [3] [%] | inhibition [4] [%] | inhibition [5] [%] | inhibition [6] [%] | inhibition [7] [%] | inhibition [8] [%] | inhibition [9] [%] | inhibition [10] [%] | inhibition [11] [%] | inhibition [12] [%] | inhibition [13] [%] | SMILES
1.85 | 5.58 | 1.43 | -0.91 | 3 | -1.63 | -5.9 | 13.6 | 15.2 | 5.14 | 2.87 | 3.95 | 11.6 | COCCCS(=O)(=O)c1cc(C)c(-c2ccc(F)c3c2CC[C@H]3Oc2ccc3c(c2)OC[C@H]3CC(=O)O)c(C)c1
9.64 | 14.5 | 26.8 | 13.1 | 9.84 | -4.38 | 5.84 | 15.1 | 25.4 | 16.6 | -4.94 | -1.99 | 20.2 | Cc1cc(OCCC(C)(C)O)cc(C)c1-c1ccc(F)c2c1CC[C@H]2Oc1ccc2c(c1)OC[C@H]2CC(=O)O

From ChEMBL document CHEMBL5058643, “Data for DCP probe BI-2081” (2022)
